Measured values: patent publication US20040197338A1, “Respiratory syncytial virus” (priority 2001, published 2004)

Assay: Peptide solubility
Type: physicochemical
Details: for solubility on resuspension: resuspended at 1 mg/ml, other peptides in water

CC[C@H](C)[C@H](NC(=O)[C@H](CCC(N)=O)NC(=O)[C@@H](NC(=O)[C@H](CCC(=O)O)NC(=O)[C@@H](NC(=O)[C@@H](NC(=O)[C@H](CC(C)C)NC(=O)[C@H](CO)NC(=O)[C@H](C)NC(=O)[C@H](CC(C)C)NC(=O)[C@@H](NC(=O)[C@H](CC(C)C)NC(=O)[C@@H](NC(=O)[C@H](CCC(=O)O)NC(=O)[C@H](Cc1ccccc1)NC(=O)[C@H](CCCCN)NC(=O)[C@H](CCSC)NC(=O)[C@H](CCC(=O)O)NC(=O)[C@H](CCCCN)NC(=O)CN)C(C)C)[C@@H](C)O)[C@@H](C)O)[C@@H](C)O)[C@@H](C)CC)C(=O)O [N8]
solubility in water / PBS: solubility problems in water | solubility on resuspension: required 10% (v/v) acetic acid for solubility

CC[C@H](C)[C@H](NC(=O)CN)C(=O)N[C@@H](Cc1ccccc1)C(=O)N[C@@H](C)C(=O)NCC(=O)N[C@@H](CC(C)C)C(=O)N[C@@H](Cc1ccccc1)C(=O)N[C@@H](CCSC)C(=O)N[C@@H](CC(N)=O)C(=O)N[C@@H](C)C(=O)N[C@@H](Cc1ccc(O)cc1)C(=O)NCC(=O)N[C@@H](C)C(=O)NCC(=O)N[C@@H](CCC(N)=O)C(=O)N[C@H](C(=O)N[C@@H](CCSC)C(=O)N[C@@H](CC(C)C)C(=O)N[C@@H](CCCNC(=N)N)C(=O)N[C@@H](Cc1c[nH]c2ccccc12)C(=O)O)C(C)C [N17]
solubility in water / PBS: solubility problems in water | solubility on resuspension: required 10% (v/v) acetic acid for solubility

CC[C@H](C)[C@H](NC(=O)[C@H](CC(C)C)NC(=O)CNC(=O)[C@@H](NC(=O)[C@H](Cc1ccccc1)NC(=O)[C@H](CCCCN)NC(=O)[C@H](Cc1c[nH]cn1)NC(=O)[C@H](CC(N)=O)NC(=O)[C@H](C)NC(=O)[C@H](CC(=O)O)NC(=O)[C@H](CCC(=O)O)NC(=O)[C@@H](NC(=O)[C@@H](NC(=O)[C@H](CC(C)C)NC(=O)[C@H](CC(C)C)NC(=O)[C@H](CCSC)NC(=O)CNC(=O)[C@H](CS)NC(=O)[C@H](CC(C)C)NC(=O)[C@@H](N)CCCCN)[C@@H](C)CC)[C@@H](C)O)[C@@H](C)O)C(=O)O [peptide N4]
solubility in water / PBS: soluble in PBS
